Assays:
Format in all cases: cell-based
[1] = test system: RT-112 (FGFR3-Tacc3 fusion) cells; experiment: cell proliferation assay (CellTiterGlo), RT-112 cells; settings: Homo sapiens, RT-112, RT112 cells, 72 hours
How it was run: (§1)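 Luminescent ATP read-out (CellTiterGlo) after exposure to compound at varying concentrations or DMSO vehicle. IC50 derived with vehicle-treated wells set as viable cells.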

[2] = test system: DMS-114 (FGFR1 overexpression) cells; experiment: cell proliferation assay (CellTiterGlo), DMS-114 cells; settings: Homo sapiens, DMS-114, 72 h
How it was run: as §1

[3] = test system: UM-UC-14 (FGFR3-S249C) cells; experiment: cell proliferation assay (CellTiterGlo), UM-UC-14 cells; settings: UMUC14, 72 h
How it was run: as §1

[4] = test system: SNU-16 (FGFR2-amplification) cells; experiment: cell proliferation assay (CellTiterGlo), SNU-16 cells; settings: Homo sapiens, 72 hours
How it was run: as §1

Compound	IC50 [1] [nM]	IC50 [2] [nM]	IC50 [3] [nM]	IC50 [4] [nM]
CC(=O)N1CC=C(c2c(Oc3ccc4nc(C)[nH]c4c3)ccc3ncc(-c4cnn(CC5CC(F)(F)C5)c4)nc23)C1 [Compound 78]	100 to 400	≥ 400	100 to 400	100 to 400
Cc1nc2ccc(Oc3c(C)cc4ncc(-c5cnn(CC6CCN(C)CC6)c5)nc4c3Cl)cc2[nH]1 [Compound 334]	≥ 400	≥ 400	≥ 400	≥ 400
Cc1nc2ccc(Oc3ccc4ncc(-c5cnn(C6CN(C)C6)c5)nc4c3Cl)cc2[nH]1 [Compound 227]	20 to 100	≥ 400	20 to 100	20 to 100
Cc1nc2ccc(Oc3ccc4ncc(-c5cnn(CC6CC(F)(F)C6)c5)nc4c3-n3ccnc3)cc2[nH]1 [Compound 69]	100 to 400	≥ 400	100 to 400	100 to 400
Cc1cc2cc(Oc3ccc4ncc(-c5cnn(CC6CCN(C)CC6)c5)nc4c3Cl)ccn2n1 [Compound 345]	≥ 400	≥ 400	≥ 400	≥ 400
Cc1nc2ccc(Oc3ccc4ncc(-c5cnn(C6CCN(C(C)C)CC6)c5)nc4c3Cl)cc2[nH]1 [Compound 333]	20 to 100	≥ 400	20 to 100	20 to 100
Cc1nc2ccc(Oc3ccc4ncc(-c5cnn(CCN6CC(O)C6)c5)nc4c3Cl)cc2[nH]1 [Compound 198]	20 to 100	≥ 400	100 to 400	100 to 400
Cc1nc2ccc(Oc3ccc4ncc(-c5cnn(C6CCC(F)(F)CC6)c5)nc4c3Cl)cc2[nH]1 [Compound 358]	100 to 400	≥ 400	100 to 400	20 to 100
Cc1nc2ccc(Oc3ccc4ncc(-c5cnn(CC6CC(N(C)C)C6)c5)nc4c3Cl)cc2[nH]1 (stereo not drawn) [Compound 297]	20 to 100	≥ 400	20 to 100	20 to 100
Cc1nc2ccc(Oc3ccc4ncc(-c5cnn([C@H]6C[C@H](N7C[C@H]8C[C@@H]7CO8)C6)c5)nc4c3Cl)cc2[nH]1 [Compound 206]	20 to 100	100 to 400	20 to 100	20 to 100
Cc1nc2ccc(Oc3ccc4ncc(-c5cnn(C(C)(C)C(=O)C6CC[C@H](F)C6)c5)nc4c3Cl)cc2[nH]1 (stereo partly drawn) [Compound 195]	20 to 100	≥ 400	20 to 100	20 to 100
Cc1nc2cc(Oc3ccc4ncc(-c5cnn(CC6CC(F)(F)C6)c5)nc4c3Cl)cc(F)c2[nH]1 [Compound 266]	100 to 400	≥ 400	100 to 400	100 to 400
Cc1nc2ccc(Oc3ccc4ncc(-c5cnn([C@H]6C[C@H]7CC[C@@H](C6)N7C)c5)nc4c3Cl)cc2[nH]1 [Compound 364]	< 20	100 to 400	< 20	20 to 100
Cc1nc2ccc(Oc3ccc4ncc(-c5cnn(CC6CCC(N(C)C)CC6)c5)nc4c3Cl)cc2[nH]1 (stereo not drawn) [Compound 338]	20 to 100	100 to 400	20 to 100	20 to 100
Cc1nc2ccc(Oc3ccc4ncc(-c5cnn(C6CC(N7CC(O)C7)C6)c5)nc4c3Cl)cc2[nH]1 (stereo not drawn) [Compound 309]	20 to 100	100 to 400	20 to 100	20 to 100
CC(=O)NC1(Cn2cc(-c3cnc4ccc(Oc5ccc6nc(C)[nH]c6c5)c(Cl)c4n3)cn2)CC1 [Compound 98]	100 to 400	≥ 400	≥ 400	100 to 400
Cc1nc2ccc(Oc3ccc4ncc(-c5cn(CC6CC(F)(F)C6)nc5C)nc4c3Cl)cc2[nH]1 [Compound 276]	20 to 100	≥ 400	100 to 400	100 to 400

Compound	IC50 [1] [nM]	IC50 [2] [nM]	IC50 [3] [nM]	IC50 [4] [nM]
Cc1nc2ccc(Oc3ccc4ncc(-c5cnn(CC6CCS(=O)(=O)CC6)c5)nc4c3Br)cc2[nH]1 [Compound 279]	< 20	≥ 400	< 20	< 20
Cc1nc2ccc(Oc3ccc4ncc(-c5cnn([C@H]6CC[C@H](N7CCC7)CC6)c5)nc4c3Cl)cc2[nH]1 [Compound 355]	20 to 100	100 to 400	20 to 100	20 to 100
Cc1nc2ccc(Oc3ccc4ncc(-c5cnn(C6CCN(S(C)(=N)=O)CC6)c5)nc4c3Cl)cc2[nH]1 (stereo not drawn) [Compound 82]	20 to 100	100 to 400	20 to 100	< 20
COC1CCN(CCn2cc(-c3cnc4ccc(Oc5ccc6nc(C)[nH]c6c5)c(Cl)c4n3)cn2)C1 (stereo not drawn) [Compound 260]	20 to 100	100 to 400	20 to 100	20 to 100
Cc1nc2ccc(Oc3ccc4ncc(-c5cnn(CCN6CCC(F)(F)C6)c5)nc4c3Cl)cc2[nH]1 [Compound 252]	20 to 100	≥ 400	20 to 100	20 to 100
C=C(F)/C=C/n1cc(-c2cnc3ccc(Oc4ccc5nc(C)[nH]c5c4)c(Cl)c3n2)cn1 [Compound 199]	100 to 400	≥ 400	100 to 400	100 to 400
Cc1nc2ccc(Oc3ccc4ncc(-c5cnn([C@H]6C[C@@H](N7CCOCC7)C6)c5)nc4c3Cl)cc2[nH]1 [Compound 323]	20 to 100	≥ 400	20 to 100	< 20
CC(=O)/C=C/N1CC[C@H](n2cc(-c3cnc4ccc(Oc5ccc6nc(C)[nH]c6c5)c(Cl)c4n3)cn2)[C@@H](F)C1 [Compound 233]	20 to 100	≥ 400	20 to 100	20 to 100
Cc1nc2ccc(Oc3ccc4ncc(-c5cnn(CC6(NS(C)(=O)=O)CC6)c5)nc4c3Cl)cc2[nH]1 [Compound 99]	100 to 400	≥ 400	≥ 400	100 to 400
Cc1nc2ccc(Oc3ccc4ncc(-c5cnn(C(C)(C)CC(N)=O)c5)nc4c3Cl)cc2[nH]1 [Compound 282]	20 to 100	≥ 400	100 to 400	20 to 100
Cc1nc2ccc(Oc3ccc4ncc(-c5cnn(CC6CCC(F)(F)C6)c5)nc4c3Cl)cc2[nH]1 (stereo not drawn) [Compound 286]	20 to 100	≥ 400	20 to 100	100 to 400
Cc1nc2ccc(Oc3ccc4ncc(-c5cnn(CC(=O)N6CCOC(C)(C)C6)c5)nc4c3Cl)cc2[nH]1 [Compound 188]	20 to 100	≥ 400	20 to 100	20 to 100
Cc1nc2ccc(Oc3ccc4ncc(-c5cnn(CC6CC(F)(F)C6)c5)nc4c3C3CCCOC3)cc2[nH]1 (stereo not drawn) [Compound 87]	≥ 400	≥ 400	≥ 400	≥ 400
Cc1nc2ccc(Oc3ccc4ncc(-c5cnn(CC6(O)CCC6)c5)nc4c3Cl)cc2[nH]1 [Compound 146]	20 to 100	≥ 400	20 to 100	20 to 100
Cc1nc2ccc(Oc3ccc4ncc(-c5cnn(CC6CC(F)(F)C6)c5)nc4c3N3CCOC3=O)c(F)c2[nH]1 [Compound 95]	100 to 400	≥ 400	≥ 400	100 to 400
Cc1nc2ccc(Oc3ccc4ncc(-c5cnn(CC6CCN(C)CC6)c5)nc4c3C#N)cc2[nH]1 [Compound 382]	20 to 100	100 to 400	20 to 100	20 to 100

From US20240368181A1, “QUINOXALINE DERIVATIVES AND USES THEREOF” (Black Diamond Therapeutics, Inc., priority 2021, published 2024)
